The record followed here is patent publication US6608086B2, “Dihydropyridines and new uses thereof” (Synaptic Pharmaceutical Corporation, priority 1993, dated 2003).

Each structure is given as a SMILES string. Structures can show the parent of a compound that is named as a salt.

For the first test, the target named is T1, α1A Human Adrenergic Receptor (Homo sapiens, UniProt P25100).
T1 construct: The entire coding region of α1A (1719 bp); expressed in transfected cells
T1 sequence (P25100 1-572): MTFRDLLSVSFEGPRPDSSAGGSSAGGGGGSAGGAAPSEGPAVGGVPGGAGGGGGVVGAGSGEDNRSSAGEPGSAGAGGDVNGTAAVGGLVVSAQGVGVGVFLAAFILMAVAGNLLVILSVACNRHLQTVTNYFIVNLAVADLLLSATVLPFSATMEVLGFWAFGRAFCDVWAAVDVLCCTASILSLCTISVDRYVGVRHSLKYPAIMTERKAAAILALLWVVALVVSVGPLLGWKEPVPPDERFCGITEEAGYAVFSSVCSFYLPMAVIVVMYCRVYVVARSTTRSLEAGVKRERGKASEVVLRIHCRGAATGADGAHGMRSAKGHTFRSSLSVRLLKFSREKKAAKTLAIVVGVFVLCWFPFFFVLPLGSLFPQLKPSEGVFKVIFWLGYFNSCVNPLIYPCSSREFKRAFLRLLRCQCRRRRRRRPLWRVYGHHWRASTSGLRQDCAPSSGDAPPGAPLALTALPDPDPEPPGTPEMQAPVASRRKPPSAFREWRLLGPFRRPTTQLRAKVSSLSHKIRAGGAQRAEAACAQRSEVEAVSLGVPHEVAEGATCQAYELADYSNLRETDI
Put plainly: Radioligand binding, [3H]prazosin, cloned human α1A adrenergic receptor. To be noted: pKi alpha-1 1a. The gist of the method:
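Filter-bound radioactivity measured [3H]prazosin (0.5 nM) binding to membranes of LM(tk−) cells expressing the human α1A receptor after 20 min at 37° C. Phentolamine at 10 μM set nonspecific binding.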
As for `COC(=O)C1=C(C)NC(C)=C(C(=O)NCCCN2CCC(c3ccccc3)(c3ccccc3)CC2)C1c1ccc2ccccc2c1` (stereo not drawn) [Example 22], the inhibition constant Ki is 741 nM. In turn, `CC1=C(C#N)C(c2ccc([N+](=O)[O-])cc2)C(C(=O)NCCCN2CCC(c3ccccc3)(c3ccccc3)CC2)=C(C)N1` (stereo not drawn) [Example 37] gave a Ki of 692 nM. The Ki values of the last two compounds are within 1.5-fold of each other. Turning to `COC(=O)C1=C(C)NC(C)=C(C(=O)N(C)CCCN2CCC(c3ccccc3)(c3ccccc3)CC2)C1c1ccc([N+](=O)[O-])cc1` (stereo not drawn) [Example 46, hydrochloride hemihydrate], the Ki was 501 nM. With `COC(=O)C1=C(C)NC(C)=C(C(=O)NCCN2CCC(c3ccccc3)(c3ccccc3)CC2)C1c1ccc([N+](=O)[O-])cc1` (stereo not drawn) [Example 52, 1,4-Dihydro-3-methoxycarbonyl-2,6-dimethyl-4-(4-nitrophenyl)-5-{N-[2-(4,4-diphenylpiperidin-1-yl)ethyl]}carboxamidopyridine hydrochloride hemihydrate], the inhibitory constant (Ki) was 1150 nM. On the same count and under the same terms, to `COC(=O)C1=C(C)NC(c2ccccc2)=C(C(=O)NCCCN2CCC(c3ccccc3)(c3ccccc3)CC2)C1c1ccc([N+](=O)[O-])cc1` (stereo not drawn) [Example 78, 1,4-Dihydro-5-methoxycarbonyl-6-methyl-4-(4-nitro)phenyl-2-phenyl-3-(N-(3-(4,4-diphenylpiperidin-1-yl)propyl))carboxamidopyridine hydrochloride hydrate] belongs 178 nM; to `CCOC(=O)C1=C(CC(=O)NCCCN2CCC(c3ccccc3)(c3ccccc3)CC2)NC(C)=C(C(=O)OC)C1c1ccc([N+](=O)[O-])cc1` (stereo not drawn) [Example 89, 3-Ethoxycarbonyl-1,4-dihydro-5-methoxycarbonyl-6-methyl-4-(4-nitro)phenyl-2-(N-(3-(4,4,-diphenylpiperidin-1-yl)propyl)carboxamido)methylpyridine, fumarate salt], 347 nM.

The test is the same for the next values; noted with them: pKi alpha-1 1a, [3H]prazosin, cloned human receptor in LM(tk-) cell membranes; SEM and n in lines below.
For the compound `CCC1=C(C(=O)NCCCN2CCC(c3ccccc3)(c3ccccc3)CC2)C(c2ccc([N+](=O)[O-])cc2)C(C(=O)OCc2ccccc2)=C(C)N1` (stereo not drawn) [Example 4, 5-Benzyloxycarbonyl-2-ethyl-1,4-dihydro-6-methyl-4-(4-nitrophenyl)-3-(N-(3-(4,4-diphenylpiperidin-1-yl)propyl)carboxamido) pyridine, Hydrochloride Salt, Hydrate], the affinity, expressed as Ki, was 195 nM. Compound `COC(=O)C1=C(C)NC(C)=C(C(=O)NCCCN2CCC(c3ccccc3)(c3ccccc3)CC2)C1c1ccc([N+](=O)[O-])c(C)c1` (stereo not drawn) [Example 28] showed a Ki of 437 nM. Turning to `COC(=O)C1=C(C)NC(c2ccoc2)=C(C(=O)NCCCN2CCC(c3ccccc3)(c3ccccc3)CC2)C1c1ccc([N+](=O)[O-])cc1` (stereo not drawn) [Example 43, 2-(Furan-3-yl)-, 4-dihydro-5-methoxycarbonyl-6-methyl-4-(4-nitrophenyl)-3-(N-(3-(4,4-diphenylpiperidin-1-yl)propyl)carboxamidopyridine, hydrochloride salt], the inhibitory constant (Ki) is 316 nM.

Compound `CC1=C(C(N)=O)C(c2ccc([N+](=O)[O-])cc2)C(C(=O)NCCN2CCC(c3ccccc3)(c3ccccc3)CC2)=C(C)N1` (stereo not drawn) [Example 54, 5-Carboxamide-1,4-dihydro-2,6-dimethyl-4-(4-nitrophenyl)-3-{N-[2-(4,4-diphenylpiperidin-1-yl)ethyl]}carboxamidopyridine hydrochloride hydrate] showed a Ki of 347 nM. The Ki values of the last two compounds are within 1.5-fold of each other.

Staying with this test, now noted: pKi alpha-1 1a, [3H]prazosin, cloned human α1A receptor, LM(tk−) cell membranes.
On to `CCC1=C(C(N)=O)C(c2ccc([N+](=O)[O-])cc2)C(C(=O)NCCCN2CCC(C#N)(c3ccccc3)CC2)=C(CC)N1` (racemic) [(±)-102, 5-Carboxamido-3-{N-[(4-cyano-4-phenylpiperidin-1-ly)propyl]carboxamido-2,6-diethyl-1,4-dihydro-4-(4-nitrophenyl)pyridine hydrochloride hydrate], for which the affinity corresponds to a Ki of 3470 nM. `CCC1=C(C(N)=O)C(c2ccc([N+](=O)[O-])cc2)C(C(=O)NCCCN2CCC(C#N)(c3ccccc3)CC2)=C(CC)N1` (single isomer, unassigned; (-)) [(−)-102] gave an inhibition constant (Ki) of 6760 nM.

Usually Ki stands for a measure of affinity in units of concentration, obtained from inhibition or displacement. The low end stands for higher affinity, the high end for lower affinity.
